Tested on: hind paw edema induced by carrageenin in the rat
Assay: hind paw edema induced by carrageenin in the rat (anti-inflammatory activity, oral)
Assay type: in vivo, rat (male, Sprague-Dawley)
Details: oral intubation 1 h before carrageenin, foot volume 3 h later, ED50 = dose in which edema formation is inhibited by 25 percent or more in 50 percent of the rats vs. mean of controls
Method: The procedure described below (Winters et al, Proc. Soc., Exp. Biol. Med., 111, 544, 1962) was used to establish the effectiveness of these compounds in the hind paw edema induced by carrageenin in the rat.
Male rats of the Sprague-Dawley strain (Charles River Laboratories) weighing 100 ± 20 grams were used for this study. Six animals were used for each drug dose. The drug was suspended in 1 percent aqueous solution of gum acacia, and each rat received 10 ml/kg of the appropriate concentration of drug suspension by oral intubation; controls were given a similar volume of the vehicle. One hour later, edema in the right hind paw was induced by the subplantar injection of 0.05 ml. of 1 percent calcium carrageenin dissolved in 0.15N sodium chloride. The volume of the foot was determined immediately and again 3 hours later. The difference was recorded as edema volume. Foot volume was measured by immersion of the foot in water at the level of the lateral malleolus, and determining the volume of water displaced by the foot. The ED50 may be defined as the dose in which edema formation is inhibited by 25 percent or more in 50 percent of the rats when compared to the mean value of the controls.

SMILES	ED50 [mg/kg]
O=C1c2cc(Cl)ccc2OC2CCCON12 (stereo not drawn) [Example 1, 8-chloro-2,3,4,4a-tetrahydro-10H-1,2-oxazino (3,2-b)(1,3)benzoxazin-10-one]	100 ± 27
O=C1c2ccccc2OC2CCCON12 (stereo not drawn) [Example 2, 2,3,4,4a-tetrahydro-10H-1,2-oxazino(3,2-b) (1,3)benzoxazin-10-one]	65 ± 22
Cc1ccc2c(c1)C(=O)N1OCCCC1O2 (stereo not drawn) [Example 3, 8-methyl-2,3,4,4a-tetrahydro-10H-1,2oxazino (3,2-b)(1,3)benzoxazine-10-one]	> 300
CC1CCC2Oc3ccc(Cl)cc3C(=O)N2O1 (stereo not drawn) [Example 4, 8-chloro-2-methyl-2,3,4,4a-tetrahydro-10H-1,2-oxazino(3,2-b)(1,3)benzoxazin-10-one]	270 ± 185
CC1CON2C(=O)c3cc(Cl)ccc3OC2C1 (stereo not drawn) [Example 5, 8-chloro-3-methyl-2,3,4,4a-tetrahydro-10H-1,2-oxazino(3,2-b)(1,3)benzoxazin-10-one]	160 ± 73
CC1CCON2C(=O)c3cc(Cl)ccc3OC12 (stereo not drawn) [Example 6, 8-chloro-4-methyl-2,3,4,4a-tetrahydro-10H-1,2-oxazino(3,2-b)(1,3)benzoxazin-10-one]	195 ± 96
